This note sets out measurements from patent US9018206B2, “Carboxamide compounds and their use as calpain inhibitors” (AbbVie Deutschland GmbH & Co. KG, priority 2009, dated 2015).

What all share (assay type): biochemical
Test [1] deals with T1, cathepsin K activated from recombinant human procathepsin K (Homo sapiens, UniProt P43235).
T1 construct: purchased Calbiochem 342001; host or cells: E. coli
T1 sequence (P43235 115-329): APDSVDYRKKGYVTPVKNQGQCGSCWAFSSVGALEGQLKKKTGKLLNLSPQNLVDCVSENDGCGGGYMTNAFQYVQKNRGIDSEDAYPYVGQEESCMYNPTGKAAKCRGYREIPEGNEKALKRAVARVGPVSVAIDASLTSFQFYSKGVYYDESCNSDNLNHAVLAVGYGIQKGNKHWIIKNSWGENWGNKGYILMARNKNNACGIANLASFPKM
Put plainly: Cathepsin K enzyme inhibition in vitro (kinetic fluorescence assay). Particulars: Ki(cathepsin K)/Ki(calpain) ratio. In short, it runs like this: (§1)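 Kinetic AMC fluorescence (ex 390/em 460 nm), room temperature. Calpain-I 20 nM, 100 μM Suc-Leu-Tyr-AMC, imidazole/CaCl2 pH 7.3; cathepsins B 0.25 nM/100 μM Z-Phe-Arg-AMC, K 3 nM/10 μM Z-Gly-Pro-Arg-AMC, S 0.5 nM/20 μM Z-Val-Val-Arg-AMC, each MES/EDTA/cysteine pH 6.0. Ki from IC50 via Cheng-Prusoff, averaging 2–4 curves.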

In test [2] the target is T2, cathepsin L isolated from human liver (Homo sapiens, UniProt P07711).
T2 construct: cathepsin L—isolated from human liver; purchased Calbiochem 219402; host or cells: human liver (tissue-derived)
T2 sequence (P07711 114-333): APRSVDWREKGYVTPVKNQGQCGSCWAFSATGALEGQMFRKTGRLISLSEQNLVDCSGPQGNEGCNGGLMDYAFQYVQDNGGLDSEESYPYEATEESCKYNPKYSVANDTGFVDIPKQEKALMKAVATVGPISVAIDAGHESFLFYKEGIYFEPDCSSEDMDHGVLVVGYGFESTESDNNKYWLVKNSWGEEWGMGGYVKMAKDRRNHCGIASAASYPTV
In words: Cathepsin L enzyme inhibition in vitro (kinetic fluorescence assay). Particulars: Ki(cathepsin L)/Ki(calpain) ratio. The procedure:
Testing for blockade of the corresponding enzymic activities was carried out by means of kinetic fluorescence assays (excitation 390 nm, emission 460 nm).
Apparent Ki values were calculated from the experimentally determined IC50 values by the Cheng-Prussoff relation assuming a reversible competitive enzyme inhibition. The Km values of the substrates used under the assay conditions indicated above were: 90 μM (Z-Phe-Arg-AMC, cathepsin B), 10 μM (Z-Gly-Pro-Arg-AMC, cathepsin K), 2 μM (Z-Phe-Arg-AMC, cathepsin L), and 30 μM (Z-Val-Val-Arg-AMC, cathepsin S).
The indicated Ki values are averages of the inhibition constants calculated on the basis of 2 to 4 independent dose-effect plots.
• 20 nM calpain-I—isolated from human erythrocytes (Calbiochem #208713), 100 μM Suc-Leu-Tyr-AMC (Bachem #I-1355) as substrate in buffer with 62 mM imidazole, 0.3 mM CaCl2, 0.10% CHAPS, 0.05% BSA, 1 mM DTT at pH 7.3 and room temperature. 1. Cathepsin B: • 0.25 nM cathepsin B—isolated from human liver (Calbiochem #219362), 100 μM Z-Phe-Arg-AMC (Bachem #I-1160) as substrate 50 mM MES, 2 mM EDTA, 0.05% Brij 35, 2.5 mM L-cysteine, pH 6.0, room temperature. 3. Cathepsin K: • 3 nM cathepsin K activated from recombinant human procathepsin K from E. coli (Calbiochem #342001), 10 μM Z-Gly-Pro-Arg-AMC (Biomol #P-142) as substrate in 50 mM MES, 2 mM EDTA, 0.05% Brij 35, 2.5 mM L-cysteine, pH 6.0, room temperature. 4. Cathepsin L: • 1 nM cathepsin L—isolated from human liver (Calbiochem #219402), 2 μM Z-Phe-Arg-AMC (Bachem #I-1160) as substrate in 50 mM MES, 2 mM EDTA, 0.05% Brij 35, 2.5 mM L-cysteine, pH 6.0, room temperature. 5. Cathepsin S: • 0.5 nM recombinant human cathepsin S from E. coli (Calbiochem #219343), 20 μM Z-Val-Val-Arg-AMC (Bachem #I-1540) as substrate in 50 mM MES, 2 mM EDTA, 0.05% Brij 35, 2.5 mM L-cysteine, pH 6.0, room temperature.

Test [3] deals with T3, calpain-I isolated from human erythrocytes (Homo sapiens, UniProt P07384).
T3 construct: calpain-I—isolated from human erythrocytes; purchased Calbiochem 208713; host or cells: human erythrocytes (tissue-derived)
T3 sequence (P07384 1-714): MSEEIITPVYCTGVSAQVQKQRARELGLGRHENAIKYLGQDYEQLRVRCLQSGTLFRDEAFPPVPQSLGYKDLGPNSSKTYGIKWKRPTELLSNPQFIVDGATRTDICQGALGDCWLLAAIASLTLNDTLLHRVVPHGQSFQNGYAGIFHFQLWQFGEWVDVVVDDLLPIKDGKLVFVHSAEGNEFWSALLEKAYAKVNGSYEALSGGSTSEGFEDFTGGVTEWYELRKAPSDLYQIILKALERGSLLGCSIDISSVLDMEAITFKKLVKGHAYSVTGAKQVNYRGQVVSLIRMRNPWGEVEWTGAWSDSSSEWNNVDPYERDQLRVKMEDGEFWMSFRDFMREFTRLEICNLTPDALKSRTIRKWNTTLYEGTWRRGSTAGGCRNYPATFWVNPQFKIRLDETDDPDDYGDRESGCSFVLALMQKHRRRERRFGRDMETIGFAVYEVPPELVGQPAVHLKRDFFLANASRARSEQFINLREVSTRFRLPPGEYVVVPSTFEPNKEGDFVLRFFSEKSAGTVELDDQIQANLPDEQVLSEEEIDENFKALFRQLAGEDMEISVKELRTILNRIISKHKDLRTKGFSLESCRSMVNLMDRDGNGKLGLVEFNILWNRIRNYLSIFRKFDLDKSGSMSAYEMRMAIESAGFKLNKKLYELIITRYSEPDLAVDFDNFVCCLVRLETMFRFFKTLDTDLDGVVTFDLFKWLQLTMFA
T3 sequence (P04632 1-268 partner): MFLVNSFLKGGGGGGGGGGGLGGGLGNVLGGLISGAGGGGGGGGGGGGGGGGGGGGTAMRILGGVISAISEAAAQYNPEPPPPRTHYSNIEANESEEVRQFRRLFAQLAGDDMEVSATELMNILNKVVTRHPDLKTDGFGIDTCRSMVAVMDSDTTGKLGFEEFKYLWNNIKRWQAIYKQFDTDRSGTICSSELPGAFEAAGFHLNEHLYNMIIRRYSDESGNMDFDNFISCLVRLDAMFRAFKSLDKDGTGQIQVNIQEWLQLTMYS
In words: Calpain I enzyme inhibition in vitro (kinetic fluorescence assay). Conditions: apparent Ki from IC50 (Cheng-Prussoff); 20 nM calpain-I, 100 μM Suc-Leu-Tyr-AMC, pH 7.3, room temperature. In outline:
as §1

The target of test [4] is T4, cathepsin B isolated from human liver (Homo sapiens, UniProt P07858).
T4 construct: cathepsin B—isolated from human liver; purchased Calbiochem 219362; host or cells: human liver (tissue-derived)
In words: Cathepsin B enzyme inhibition in vitro (kinetic fluorescence assay). Conditions: Ki(cathepsin B)/Ki(calpain) ratio. In short, it runs like this:
as §1

The target of test [5] is T5, recombinant human cathepsin S (Homo sapiens, UniProt P25774).
T5 construct: purchased Calbiochem 219343; host or cells: E. coli
T5 sequence (P25774 115-331): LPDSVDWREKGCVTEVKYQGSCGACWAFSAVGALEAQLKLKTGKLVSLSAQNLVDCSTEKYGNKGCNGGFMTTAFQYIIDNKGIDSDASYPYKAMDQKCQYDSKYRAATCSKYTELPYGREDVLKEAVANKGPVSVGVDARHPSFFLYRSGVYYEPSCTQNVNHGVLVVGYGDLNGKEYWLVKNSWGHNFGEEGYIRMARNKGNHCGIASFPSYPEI
In words: Cathepsin S enzyme inhibition in vitro (kinetic fluorescence assay). Conditions: Ki(cathepsin S)/Ki(calpain) ratio. In outline: as §1

Structures are written as SMILES.

For the compound `CCNC(=O)C(=O)C(Cc1ccccc1)NC(=O)[C@H]1CCC(=O)N1Cc1c(Cl)cccc1Cl` (mixture of isomers) [Example 62, (2R)-1-(2,6-Dichlorobenzyl)-N-(4-(ethylamino)-3,4-dioxo-1-phenylbutan-2-yl)-5-oxopyrrolidine-2-carboxamide], the “Sel cat. K” value in test [1] is “++ (10<Ki(cathepsin B)/Ki(calpain)≦30)”. The “Sel cat. L” value in test [2] is recorded as “++ (10<Ki(cathepsin B)/Ki(calpain)≦30)”. Also, the Ki in test [3] is 100 to 600 nM. In test [4], the “Sel cat. B” value is “++ (10<Ki(cathepsin B)/Ki(calpain)≦30)”. Further, the “Sel cat. S” value in test [5] is listed as “++ (30<Ki(cathepsin B)/Ki(calpain)≦100)”.
As to `O=C(NCc1ccncc1)C(=O)C(Cc1ccccc1)NC(=O)[C@H]1CCC(=O)N1Cc1ccccc1` (mixture of isomers) [Example 63, (2R)-1-Benzyl-N-(3,4-dioxo-1-phenyl-4-(pyridin-4-ylmethylamino)butan-2-yl)-5-oxopyrrolidine-2-carboxamide], in test [1], the “Sel cat. K” value was “+++ (Ki(cathepsin K)/Ki(calpain) ratio of >30)”. Besides, the “Sel cat. L” value in test [2] was “+++ (Ki(cathepsin L)/Ki(calpain) ratio of >30)”. Also, the Ki in test [3] is 50 to 100 nM. Also, the “Sel cat. B” value in test [4] was “+++ (Ki(cathepsin B)/Ki(calpain) ratio of >30)”. Besides, in test [5], the “Sel cat. S” value is “+++ (Ki(cathepsin S)/Ki(calpain) ratio of >100)”.
For the compound `O=C(Nc1ccccc1)C(=O)C(Cc1ccccc1)NC(=O)[C@H]1CCC(=O)N1Cc1ccccc1` (mixture of isomers) [Example 65, (2R)-1-Benzyl-N-(3,4-dioxo-1-phenyl-4-(phenylamino)butan-2-yl)-5-oxopyrrolidine-2-carboxamide], the “Sel cat. K” value in test [1] is “+++ (Ki(cathepsin K)/Ki(calpain) ratio of >30)”. Further, the “Sel cat. L” value in test [2] was “+++ (Ki(cathepsin L)/Ki(calpain) ratio of >30)”. Also, the Ki in test [3] lay in the range of 50 to 100 nM. Besides, the “Sel cat. B” value in test [4] is given as “+++ (Ki(cathepsin B)/Ki(calpain) ratio of >30)”. Also, the “Sel cat. S” value in test [5] is reported as “+++ (Ki(cathepsin S)/Ki(calpain) ratio of >100)”.
Consider `O=C(NCc1ccc2c(c1)OCO2)C(=O)C(Cc1ccccc1)NC(=O)[C@H]1CCC(=O)N1Cc1ccccc1` (mixture of isomers) [Example 66, (2R)—N-(4-(Benzo[d][1,3]-dioxol-5-ylmethylamino)-3,4-dioxo-1-phenylbutan-2-yl)-1-benzyl-5-oxopyrrolidine-2-carboxamide], for which the “Sel cat. K” value in test [1] is reported as “++ (10<Ki(cathepsin B)/Ki(calpain)≦30)”. Also, the “Sel cat. L” value in test [2] is given as “++ (10<Ki(cathepsin B)/Ki(calpain)≦30)”. Besides, the Ki in test [3] is 50 to 100 nM. For the same compound, the “Sel cat. B” value in test [4] is “+++ (Ki(cathepsin B)/Ki(calpain) ratio of >30)”. The “Sel cat. S” value in test [5] was “+++ (Ki(cathepsin S)/Ki(calpain) ratio of >100)”.
With `O=C(NCc1ccc(F)cc1)C(=O)C(Cc1ccccc1)NC(=O)[C@H]1CCC(=O)N1Cc1ccccc1` (mixture of isomers) [Example 67, (2R)-1-Benzyl-N-(4-(4-fluorobenzylamino)-3,4-dioxo-1-phenylbutan-2-yl)-5-oxopyrrolidine-2-carboxamide], in test [1], the “Sel cat. K” value is “+++ (Ki(cathepsin K)/Ki(calpain) ratio of >30)”. The “Sel cat. L” value in test [2] is listed as “+++ (Ki(cathepsin L)/Ki(calpain) ratio of >30)”. The Ki in test [3] was below 50 nM. Further, in test [4], the “Sel cat. B” value is “+++ (Ki(cathepsin B)/Ki(calpain) ratio of >30)”. In addition, the “Sel cat. S” value in test [5] is reported as “+++ (Ki(cathepsin S)/Ki(calpain) ratio of >100)”.
For the compound `NC(=O)C(=O)C(Cc1ccccc1)NC(=O)[C@H]1CCC(=O)N1Cc1cccc(Cl)c1` (stereo partly drawn) [Example 3, (2R)—N-(4-Amino-3,4-dioxo-1-phenylbutan-2-yl)-1-(3-chlorobenzyl)-5-oxopyrrolidine-2-carboxamide], the “Sel cat. K” value in test [1] was “+++ (Ki(cathepsin K)/Ki(calpain) ratio of >30)”. In test [2], the “Sel cat. L” value is “++ (10<Ki(cathepsin B)/Ki(calpain)≦30)”. Also, the Ki in test [3] is below 50 nM. Further, in test [4], the “Sel cat. B” value is reported as “++ (10<Ki(cathepsin B)/Ki(calpain)≦30)”. Also, the “Sel cat. S” value in test [5] is “+++ (Ki(cathepsin S)/Ki(calpain) ratio of >100)”.
